Measurements reported in article PMC11284088, “Synthesis and biochemical characterization of naphthoquinone derivatives targeting bacterial histidine kinases” (The Journal of Antibiotics, 2024).
Where two headings read alike, the source gives them in different places.

Key:
WalK = biological target: T1, WalK (Bacillus subtilis, UniProt Q45614); assay: Inhibition of WalK autophosphorylation; type: biochemical; set-up: key to WalK: WalK + inhibitory effect against WalK; settings: for IC50: against WalK from B. subtilis, autophosphorylation, N.I. = no inhibition, read-out: IC50; for inhibitory activity against WalK: in words; for WalK: summary class
T1 construct: His6 (N); made in house; host or cells: E. coli BL21(DE3)
Description: (§1) Autophosphorylation of WalK was conducted at 0.5 or 1 µM in a reaction mixture comprising 50 mM Tris-HCl (pH 8.5), 100 mM KCl, 5 mM MgCl2, 100 mM NH4Cl, 5% DMSO, and 40 µM ATP. The total reaction volume was 40 µl, and the incubation lasted for 30 min at 25 °C. To terminate the reaction, 40 µl of 2 × SDS-PAGE sample buffer was added, followed by a 10-min incubation at 37 °C. Subsequently, SDS-PAGE (10% acrylamide) was performed, and the samples were subjected to Western blotting using a PVDF membrane (Bio-Rad 1620177). The primary antibody used was anti-N3-phosphohistidine antibody (clone SC56-2) (EDM Millipore Corp), and the secondary antibody was goat anti-rabbit IgG-HRP (Abcam). A 2% bovine serum albumin (Sigma-Aldrich) solution served as the blocking reagent. Signals originating from phosphorylated HKs were detected using the HRP substrate (Immobilon Western Chemiluminescent HRP substrate, Millipore) and the Multi Imager II Multi Box (Bio Tools). Signal intensities were quantified with Image Analysis Software CS Analyzer 4 (ATTO). IC50 values (50% inhibitory concentrations) were determined using Prism 7 software (GraphPad).
(§2) In the assessment of naphthoquinone derivatives, the initial screening for inhibitory activity against WalK autophosphorylation was conducted at 50 or 100 µg ml^−1. Compounds displaying inhibitory activity were further examined to ascertain their IC50 values against WalK. For the chosen compounds, inhibition against EvgS, EnvZ, PhoQ, and CpxA HKs was also assessed. These reactions involved the use of 1 µM HK, 40 µM ATP, and a 30 min incubation at 25 °C.

CpxA = biological target: T2, CpxA (Escherichia coli, UniProt P0AE82); assay: Inhibition of CpxA autophosphorylation; type: biochemical, Escherichia coli K12; settings: CpxA; 1 µM HK, 40 µM ATP; read-out: IC50
T2 construct: cytoplasmic regions of PhoQ (261-486) and CpxA (188-457); His6 (C); made in house; host or cells: E. coli BL21(DE3)
Description: as §1, with “The” for “Autophosphorylation of WalK was conducted at 0.5 or 1 µM in a reaction mixture comprising 50 mM Tris-HCl (pH 8.5), 100 mM KCl, 5 mM MgCl2, 100 mM NH4Cl, 5% DMSO, and 40 µM ATP. The”
as §2, with “These reactions involved the use of 1 µM HK, 40 µM ATP, and a 30 min incubation at 25 °C.” left out

T1 sequence (Q45614 207-611): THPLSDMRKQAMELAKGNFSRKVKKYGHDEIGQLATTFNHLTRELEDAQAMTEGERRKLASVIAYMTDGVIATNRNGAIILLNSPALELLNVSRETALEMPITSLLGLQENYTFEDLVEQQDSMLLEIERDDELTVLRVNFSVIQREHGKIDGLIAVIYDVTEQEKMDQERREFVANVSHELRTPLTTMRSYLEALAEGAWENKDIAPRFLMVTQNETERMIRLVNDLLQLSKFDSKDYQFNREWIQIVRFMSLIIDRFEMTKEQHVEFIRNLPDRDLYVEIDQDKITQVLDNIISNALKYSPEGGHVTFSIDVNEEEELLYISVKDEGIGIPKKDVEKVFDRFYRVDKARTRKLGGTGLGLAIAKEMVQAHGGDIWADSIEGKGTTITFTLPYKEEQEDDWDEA
T2 sequence (P0AE82 188-457): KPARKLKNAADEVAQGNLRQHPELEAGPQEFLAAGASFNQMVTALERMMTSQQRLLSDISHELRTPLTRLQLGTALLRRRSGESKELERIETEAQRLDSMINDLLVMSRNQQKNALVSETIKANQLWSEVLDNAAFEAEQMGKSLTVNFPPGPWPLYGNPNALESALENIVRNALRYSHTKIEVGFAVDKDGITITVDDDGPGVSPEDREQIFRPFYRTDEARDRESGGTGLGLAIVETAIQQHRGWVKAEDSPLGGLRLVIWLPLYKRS

Question: What does the source list for `O=C1C(Cl)=C(Nc2ccc(Cl)c(O)c2)C(=O)c2c(O)ccc(O)c21` [2h, 2-chloro-3-((4-chloro-3-hydroxyphenyl)amino)-5,8-dihydroxynaphthalene-1,4-dione]?
Answer: IC50 (WalK; listed as C00015): 12.6 µM; inhibitory activity against WalK (WalK): comparable to waldiomycin; WalK (WalK): +; IC50 (CpxA): 19.5 µM

Question: What does the source list for `CC(C)(C)OC(=O)Nc1cccc(NC2=C(Cl)C(=O)c3c(O)ccc(O)c3C2=O)c1` [2l, tert-butyl (3-((3-chloro-5,8-dihydroxy-1,4-dioxo-1,4-dihydronaphthalen-2-yl)amino)phenyl)carbamate]?
Answer: IC50 (WalK): 13 µM; inhibitory activity against WalK (WalK): comparable to waldiomycin; WalK (WalK): +; IC50 (CpxA): 32.7 µM

Question: Which results are given for `Cc1noc2c1C(=O)c1c(O)ccc(O)c1C2=O` [3b, 5,8-dihydroxy-3-methylnaphtho[2,3-d]isoxazole-4,9-dione]?
Answer: IC50 (WalK): 186 µM; WalK (WalK): +; IC50 (CpxA): 104 µM
